Results as given in ChEMBL document CHEMBL4002636, “Alkaloids from the mangrove endophytic fungus Diaporthe phaseolorum SKS019” (Bioorg Med Chem Lett, 2017).
Calls of active or inactive are those of the source. No cut-off for these calls is given here.

How the values were obtained:
HepG2 [1] = test: Cytotoxicity against human HepG2 cells assessed as growth inhibition at 50 uM after 48 hrs by MTT assay; format: functional, cell-based
NCI-H460 [2] = test: Cytotoxicity against human NCI-H460 cells assessed as growth inhibition after 48 hrs by MTT assay; format: functional, cell-based; conditions: NCI-H460, 48 h
NCI-H460 [3] = test: Cytotoxicity against human NCI-H460 cells assessed as growth inhibition at 50 uM after 48 hrs by MTT assay; format: functional, cell-based
HCT-116 [4] = test: Cytotoxicity against human HCT116 cells assessed as growth inhibition at 50 uM after 48 hrs by MTT assay; format: functional, cell-based
HCT-116 [5] = test: Cytotoxicity against human HCT116 cells assessed as growth inhibition after 48 hrs by MTT assay; format: functional, cell-based; conditions: HCT-116, 48 h
MDA-MB-435 [6] = test: Cytotoxicity against human MDA-MB-435 cells assessed as growth inhibition after 48 hrs by MTT assay; format: functional, cell-based; conditions: MDA-MB-435, 48 h
MDA-MB-435 [7] = test: Cytotoxicity against human MDA-MB-435 cells assessed as growth inhibition at 50 uM after 48 hrs by MTT assay; format: functional, cell-based
MCF-10A = test: Cytotoxicity against human MCF10A cells assessed as growth inhibition after 48 hrs by MTT assay; format: cell-based
HepG2 [8] = test: Cytotoxicity against human HepG2 cells assessed as growth inhibition after 48 hrs by MTT assay; format: functional, cell-based; conditions: HepG2, 48 h

| SMILES | growth inhibition (GI) (HepG2 [1]) | IC50 (NCI-H460 [2]) | growth inhibition (GI) (NCI-H460 [3]) | growth inhibition (GI) (HCT-116 [4]) | IC50 (HCT-116 [5]) | IC50 (MDA-MB-435 [6]) | growth inhibition (GI) (MDA-MB-435 [7]) | IC50 (MCF-10A) | IC50 (HepG2 [8]) |
| --- | --- | --- | --- | --- | --- | --- | --- | --- | --- |
| COC(=O)c1cc(O)cc2oc3cc(CO)ncc3c(=O)c12 | inactive | > 50 µM | inactive | inactive | > 50 µM | > 50 µM | inactive | > 50 µM | > 50 µM |
| COc1cccc2c1C(=O)c1c(O)c3c(c(O)c1C2=O)C[C@@](O)(C(=O)CO)C[C@@H]3O[C@H]1C[C@H](N)[C@@H](O)[C@H](C)O1 [EPIRUBICIN] | – | 0.12 µM | – | – | 0.37 µM | 0.26 µM | – | 0.13 µM | 0.32 µM |
| COC(=O)CCCCN1Cc2c(O)cc(O)cc2C1=O | inactive | > 50 µM | inactive | inactive | > 50 µM | > 50 µM | inactive | > 50 µM | > 50 µM |
| COC(=O)c1cc(OC)c(OC)c2oc3cc(C)ncc3c(=O)c12 | inactive | > 50 µM | inactive | inactive | > 50 µM | > 50 µM | inactive | > 50 µM | > 50 µM |
| COC(=O)c1cc(OC)c(OC(C)=O)c2oc3cc(C)ncc3c(=O)c12 | inactive | > 50 µM | inactive | inactive | > 50 µM | > 50 µM | inactive | > 50 µM | > 50 µM |
| COc1cc(O)c2c(c1)C(=O)c1cc(C)ncc1C2=O | – | 6.57 µM | – | – | 34.8 µM | 5.32 µM | – | 9.31 µM | > 50 µM |
| COC(=O)c1cc(OC)cc2oc3cc(C)ncc3c(=O)c12 | inactive | > 50 µM | inactive | inactive | > 50 µM | > 50 µM | inactive | > 50 µM | > 50 µM |
| O=C(O)CCCCN1Cc2c(O)cc(O)cc2C1=O | inactive | > 50 µM | inactive | inactive | > 50 µM | > 50 µM | inactive | > 50 µM | > 50 µM |
| O=C1c2cc(O)cc(O)c2CN1CCO | inactive | > 50 µM | inactive | inactive | > 50 µM | > 50 µM | inactive | > 50 µM | > 50 µM |
